Test results published in patent US7452865B2, “Antagonistic analogs of GH RH (2003)” (The Administrare's of the Tulane Educational Fund, priority 2004, dated 2008).

What was measured:
[1] = system: hGH-RH(1-29)NH2 induced GH release; assay: Inhibition of GH release in superfused rat pituitary system; assay type: cell-based; conditions: antagonist 100 nM
Summary of the method: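 Dispersed rat pituitary cells in superfusion were preincubated 9 min with analog at various concentrations, then stimulated with 1 nM hGH-RH(1-29)NH2 for 3 min, repeated at 30, 60, 90, 120 min to gauge duration. GH measured by double-antibody RIA; net integrated responses expressed as percent of the initial 1 nM GH-RH response.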

[2] = system: rat anterior pituitary adenylate cyclase; conditions: cited from earlier work
[3] = system: GH secretion; conditions: cited from earlier work

[Ac-Tyr^1, D-Arg^2]hGH-RH(1-29)NH2 [Standard antagonist, reference compound]
GH response (% of control) 0 min ([1]; 0 min): 38 % of control
GH response (% of control) 30 min ([1]; 30 min): 98 % of control
GH response (% of control) 60 min ([1]; 60 min): 81 % of control
activation of rat anterior pituitary adenylate cyclase by hGH-RH(1-29)NH2 [2]: prevent the activation
nocturnal GH secretion ([3]; 400 μg/kg, normal subjects): eliminated nocturnal GH secretion
GH levels ([3]; a patient with acromegaly): reduced GH levels
